According to paper PMC10657444, “Design and evaluation of tadpole-like conformational antimicrobial peptides” (Communications Biology, 2023):
In brackets after ≈: the same amount, converted by molar mass. Several values for one entry are separate records, joined by “and”; a condition that tells them apart may be missing. Equal values may be shown once. Read-outs that look alike come from different tables or passages of the source. Residues, ends and D or L forms follow the SMILES beside them.

Assays:
MRSA 3393 = type: cell-based, Staphylococcus aureus; conditions: 3393
Description: (§1) Bacteria were cultivated in Luria-Bertani (LB) broth.

MRSA ATCC 43300 = type: cell-based, Staphylococcus aureus; conditions: ATCC 43300
Description: as §1

MRSA USA 300 = type: cell-based, Staphylococcus aureus
Description: as §1

MRSA = type: cell-based, Staphylococcus aureus
Description: as §1

E. coli ATCC 25922 = type: cell-based, Escherichia coli
Description: as §1

E. coli S = type: cell-based, Escherichia coli
Description: as §1

A. baumannii 1318 = type: cell-based, Acinetobacter baumannii
Description: as §1

A. baumannii 1337 = type: cell-based, Acinetobacter baumannii
Description: as §1

K. pneumoniae 3026 = type: cell-based, Klebsiella pneumoniae
Description: as §1

[1] = tested on: K. pneumoniae ATCC 700603; type: cell-based, Klebsiella pneumoniae
Description: as §1

MTT cytotoxicity assay = type: cell-based, human; conditions: human; for viability at 72 h, 0.78 µM / viability at 72 h, 12.5 µM / viability at 72 h, 0.39 µM / viability at 72 h, 1.57 µM / viability at 72 h, 3.13 µM / viability at 72 h, 6.25 µM / viability at 72 h, 25 µM / viability at 72 h, 50 µM / viability at 72 h, 100 µM: HEK293T cells
Method: (§2) To determine the cytotoxicity of the peptides, we used the MTT (3-(4,5)-dimethylthiahiazo (-z-y1)-3,5-di-phenytetrazoliumromide) dye reduction assay against HEK293T cells. In brief, the 100 μL of cells in 96-well plate were incubated for 24 h at 37 °C, 5% CO2, and then peptide solutions (concentrations ranging from 100 to 0.39 μM) were added and further incubated for 72 h. MTT solution (5 mg/mL) was added and further incubated for 4 h. After incubation, the precipitated MTT formazan crystal was dissolved by addition of dimethyl sulfoxide (DMSO). […]

sheep red blood cells = assay: Hemolysis assay
Method: To evaluate the hemolysis effects of peptides, red blood hemolysis was performed as described with minimum modifications. Sterile defibrated sheep blood was purchased from Guangzhou Hongquan Biotechnology Co., LTD. Blood cells were adjusted to 2 × 10^9 cells/mL in phosphate-buffered saline (PBS, pH 7.4). In total, 98 μL sheep red blood cell suspension was incubated with 2 μL of peptides at different concentrations ranging from 3.13 to 100 µM. After incubation for 1 h at 37 °C, the cells were centrifuged and the absorbance of the supernatant was measured at 450 nm. The value for “zero hemolysis” was determined using sterile PBS, while 100% hemolysis was established using 1.5% (v/v) Triton X-100. Hemolysis of testing sample was calculated as the percentage of Triton X-100-induced hemolysis.

[2] = tested on: Gram-negative bacterial strains; type: cell-based
Description: as §1

HEK293T cells = assay: MTT cytotoxicity assay; type: cell-based, human; conditions: HEK293T
Method: as §2

[3] = HEK293T, 0.78 µM, read-out: OD450, cytotoxicity (Fig 2a), replicates
[4] = HEK293T, 12.5 µM, read-out: OD450, cytotoxicity (Fig 2a), replicates
[5] = OD450, cytotoxicity (Fig 2a), replicates

Which “MIC Gram+ MRSA 3393” value (MRSA 3393) does the source give for `CC[C@H](C)[C@H](NC(=O)[C@H](CCCNC(=N)N)NC(=O)[C@H](CCCNC(=N)N)NC(=O)[C@H](CC(C)C)NC(=O)[C@H](Cc1ccccc1)NC(=O)[C@H](CCCNC(=N)N)NC(=O)[C@@H](N)CCCNC(=N)N)C(=O)N[C@@H](Cc1ccccc1)C(=O)N[C@@H](Cc1ccccc1)C(=O)N[C@@H](Cc1ccccc1)C(=O)N[C@@H](Cc1ccccc1)C(N)=O` [HT3] (H-RRFLRRIFFFF-NH2; N-terminus assumed) here?
Its value is 3.13 µM (≈ 5.02 µg/mL).

And the “MIC Gram+ MRSA ATCC 43300” value (MRSA ATCC 43300)?
The value was 1.57 µM (≈ 2.52 µg/mL).

And the “MIC Gram+ MRSA USA 300” value (MRSA USA 300)?
Its value is 3.13 µM (≈ 5.02 µg/mL).

And the “MICs against Gram-positive bacterial strains” value (MRSA)?
Its value is 1.57 to 3.13 µM.

And the “MIC Gram- E. coli ATCC 25922” value (E. coli ATCC 25922)?
Its value is 6.25 µM (≈ 10 µg/mL).

And the “MIC Gram- E. coli S” value (E. coli S)?
The value was 25 µM (≈ 40.1 µg/mL).

What about the “MIC Gram- A. b 1318” value (A. baumannii 1318) of the same compound?
Its value is 6.25 µM (≈ 10 µg/mL).

And the “MIC Gram- A. b 1337” value (A. baumannii 1337)?
The value was 6.25 µM (≈ 10 µg/mL).

And the “MIC Gram- K. p 3026” value (K. pneumoniae 3026)?
Its value is 6.25 µM (≈ 10 µg/mL).

And the “MIC Gram- K. p ATCC 700603” value [1]?
Its value is 6.25 µM (≈ 10 µg/mL).

What about the IC50 at 72 h (MTT cytotoxicity assay) of the same compound?
Its IC50 at 72 h is 49 µM.

And the viability at 72 h, 0.78 µM (MTT cytotoxicity assay; [3])?
Its viability at 72 h, 0.78 µM is 95.8%.

What about the viability at 72 h, 12.5 µM (MTT cytotoxicity assay; [4]) of the same compound?
The viability at 72 h, 12.5 µM was 94.4%.

And the viability at 72 h, 0.39 µM (MTT cytotoxicity assay; [5])?
The viability at 72 h, 0.39 µM was 94%.

What about the viability at 72 h, 0.78 µM (MTT cytotoxicity assay; [5]) of the same compound?
The viability at 72 h, 0.78 µM was 98.7%.

What about the viability at 72 h, 1.57 µM (MTT cytotoxicity assay; [5]) of the same compound?
Its viability at 72 h, 1.57 µM is 96.4%.

What about the viability at 72 h, 3.13 µM (MTT cytotoxicity assay; [5]) of the same compound?
The viability at 72 h, 3.13 µM was 97.8%.

What about the viability at 72 h, 6.25 µM (MTT cytotoxicity assay; [5]) of the same compound?
The viability at 72 h, 6.25 µM was 94.9%.

And the viability at 72 h, 12.5 µM (MTT cytotoxicity assay; [5])?
The viability at 72 h, 12.5 µM was 99.5%.

And the viability at 72 h, 25 µM (MTT cytotoxicity assay; [5])?
Its viability at 72 h, 25 µM is 91.4%.

What about the viability at 72 h, 50 µM (MTT cytotoxicity assay; [5]) of the same compound?
Its viability at 72 h, 50 µM is 59.2%.

What about the viability at 72 h, 100 µM (MTT cytotoxicity assay; [5]) of the same compound?
Its viability at 72 h, 100 µM is 24.2%.

And the “HC10 (concentration inducing 10% hemolysis)” value (sheep red blood cells; red cells of sheep, 1 h)?
Its value is over 100.0 µM.

What about the “MICs against Gram-negative bacterial strains, such as A. baumannii and Klebsiella pneumoniae” value [2] of the same compound?
The value was 6.25 µM.

For `CC[C@H](C)[C@H](NC(=O)[C@H](CCCNC(=N)N)NC(=O)[C@H](CO)NC(=O)[C@H](CC(C)C)NC(=O)[C@H](Cc1ccccc1)NC(=O)[C@H](Cc1ccccc1)NC(=O)[C@@H](N)Cc1ccccc1)C(=O)N[C@@H](Cc1ccccc1)C(N)=O` [SHf] (H-FFFLSRIF-NH2; N-terminus assumed), which “MICs against MRSA” value (MRSA; range over the MRSA strains) is on record?
The value was 50 to 100 µM.

And the viability at 72 h, 0.39 µM (MTT cytotoxicity assay; HEK293T, 0.39 µM, read-out: OD450, cytotoxicity (Fig 2a), replicates)?
The viability at 72 h, 0.39 µM was 99%.

What about the viability at 72 h, 0.78 µM (MTT cytotoxicity assay; [3]) of the same compound?
Its viability at 72 h, 0.78 µM is 90.4%.

And the viability at 72 h, 1.57 µM (MTT cytotoxicity assay; HEK293T, 1.57 µM, read-out: OD450, cytotoxicity (Fig 2a), replicates)?
Its viability at 72 h, 1.57 µM is 97.8%.

And the viability at 72 h, 3.13 µM (MTT cytotoxicity assay; HEK293T, 3.13 µM, read-out: OD450, cytotoxicity (Fig 2a), replicates)?
Its viability at 72 h, 3.13 µM is 100%.

And the viability at 72 h, 6.25 µM (MTT cytotoxicity assay; HEK293T, 6.25 µM, read-out: OD450, cytotoxicity (Fig 2a), replicates)?
The viability at 72 h, 6.25 µM was 92.7%.

What about the viability at 72 h, 12.5 µM (MTT cytotoxicity assay; [4]) of the same compound?
The viability at 72 h, 12.5 µM was 93.4%.

What about the viability at 72 h, 25 µM (MTT cytotoxicity assay; HEK293T, 25 µM, read-out: OD450, cytotoxicity (Fig 2a), replicates) of the same compound?
The viability at 72 h, 25 µM was 94.9%.

And the viability at 72 h, 50 µM (MTT cytotoxicity assay; HEK293T, 50 µM, read-out: OD450, cytotoxicity (Fig 2a), replicates)?
The viability at 72 h, 50 µM was 92.3%.

What about the viability at 72 h, 100 µM (MTT cytotoxicity assay; HEK293T, 100 µM, read-out: OD450, cytotoxicity (Fig 2a), replicates) of the same compound?
The viability at 72 h, 100 µM was 27.1%.

And the IC50 at 72 h (MTT cytotoxicity assay; HEK293T, MTT, 72 h, read-out: IC50, mammalian cell cytotoxicity)?
The IC50 at 72 h was 59 µM.

What about the percent cell viability (HEK293T cells; 0.39 µM) of the same compound?
The percent cell viability was 94.1313 and 97.2791.

And the percent cell viability (HEK293T cells; 0.78 µM)?
The percent cell viability was 95.9839 and 98.206.

What about the percent cell viability (HEK293T cells; 1.57 µM) of the same compound?
Its percent cell viability is 94.1313 and 96.7238.

What about the percent cell viability (HEK293T cells; 3.13 µM) of the same compound?
Its percent cell viability is 98.2056.

And the percent cell viability (HEK293T cells; 6.25 µM)?
Its percent cell viability is 98.9467 and 92.2795.

What about the percent cell viability (HEK293T cells; 12.5 µM) of the same compound?
Its percent cell viability is 99.6874 and 99.3163.

What about the percent cell viability (HEK293T cells; 25 µM) of the same compound?
The percent cell viability was 98.9463 and 99.3171.

And the percent cell viability (HEK293T cells; 50 µM)?
The percent cell viability was 91.54 and 92.6507.

What about the percent cell viability (HEK293T cells; 100 µM) of the same compound?
The percent cell viability was 21.5425 and 18.5796.

And the “OD450, hemolysis (Fig 2b), replicates” value (sheep red blood cells; 3.13 µM)?
The value was 0.01725 and 0.01686 and 0.01568 and 0.01738 and 0.01699 and 0.0158.

And the “OD450, hemolysis (Fig 2b), replicates” value (sheep red blood cells; 6.25 µM)?
Its value is 0.01882 and 0.01529 and 0.01725 and 0.01896 and 0.01541 and 0.01738.

And the “OD450, hemolysis (Fig 2b), replicates” value (sheep red blood cells; 12.5 µM)?
The value was 0.01725 and 0.01803 and 0.01764 and 0.01738 and 0.01817 and 0.01777.

And the “OD450, hemolysis (Fig 2b), replicates” value (sheep red blood cells; 25 µM)?
Its value is 0.01921 (2×) and 0.01764 and 0.01936 (2×) and 0.01777.

And the “OD450, hemolysis (Fig 2b), replicates” value (sheep red blood cells; 50 µM)?
Its value is 0.02038 and 0.02156 and 0.01921 and 0.02054 and 0.02173 and 0.01936.

And the “OD450, hemolysis (Fig 2b), replicates” value (sheep red blood cells; 100 µM)?
The value was 0.01999 and 0.02234 and 0.02195 and 0.02014 and 0.02252 and 0.02212.

What about the “hemolytic activity (in words)” value (sheep red blood cells; sheep red blood cells, 3.13–100 μM) of the same compound?
Its value is “did not present hemolytic activity”.

And the “HC10 (concentration inducing 10% hemolysis)” value (sheep red blood cells; sheep red blood cells, 1 h at 37 °C)?
The value was over 100.0 µM.

And the “MICs against the tested Gram-negative bacterial strains” value ([2]; range over the strains)?
The value was over 100 µM.
